The results in this text go back to patent US20080280810A1, “PEPTIDES HAVING AFFINITY FOR BODY SURFACES” (priority 2006, published 2008).

Assay [1] in a line: Color retention after shampoo treatment, peptide as sealant with Acid Red 33 dye. More on the design: species or system human. The settings on record: 0.50 wt % Acid Red 33, peptide 0.25 wt %, 30 min contact, after one shampoo treatment; vs uncolored hair; larger = better color retention; dye alone 19.63. How it is done: The peptides used in this Example were prepared as described in Examples 1-3. The color retention was quantified using a spectrophotometric measurement technique.
A peptide given as SEQ ID NO:41, SEQ ID NO:42, or SEQ ID NO:43 (38 mg), produced via fermentation as described in Examples 1-3, was added to 15 g of an aqueous 0.50 wt % solution of Acid Red 33 (Abbey Color, Philadelphia, Pa.) and the solution was allowed to stir for 1 h. A natural white hair tress (1 cm wide, potted, International Hair Importers & Products Inc., Bellerose, N.Y.) was inserted into a 15 mm×125 mm test tube and 13 mL of the peptide/dye mixture was injected into the test tube. The hair tress was immersed in contact with the colorant solution for 30 min and the colorant solution was agitated using a magnetic stirrer. The tress was removed, allowed to drip dry, and then air dried for 30 min.
The hair tress was then subjected to a water rinse using copious amounts of deionized water, followed by a shampoo treatment with embrocation for 30 seconds. The shampoo treatment involved the application of Pantene Pro-V Sheer Volume shampoo (Proctor & Gamble, Cincinnati, Ohio) to the hair as follows. A quarter-sized drop of the shampoo was distributed evenly over the hair tress and then was massaged aggressively into the hair for 30 sec, after which the hair tress was rinsed with water to remove the shampoo. The hair tress was then dried at room temperature. The entire procedure described above was repeated without the addition of the hair-binding peptide to serve as a control.
The color intensity after the shampoo treatment was measured using an X-Rite® SP78™ Sphere Spectrophotometer (X-Rite, Inc., Grandville, Mich.), by placing the colored hair sample into the photosensor and calculating L*, a* and b* parameters representing the photometer response. An initial baseline L* value was measured for the uncolored hair and all measurements were the average of three individual determinations. Delta E values were calculated using equation 1 below: […]

Assay [2] is described as follows: Co-application of multi-block peptide with semi-permanent dye (Arianor Ebony), color retention. Also on record: species or system human; key: ΔE of peptide sample minus peptide-free control; larger = better retention. The settings on record: difference in Delta E between peptide sample and peptide free control after 3 embrocation cycles (about 12 manual shampoos); pH 8.5-9.0; >2 benefit, >4 substantial benefit. How it is done: (§1) A 0.5% aqueous solution of Arianor Ebony (Sensient Technologies Corp, Milwaukee, Wis.) containing 3% benzyl alcohol and 0.05% diazolidinyl urea (biocide) was prepared. Dye insolubles were removed by filtration and the pH of the dye solution was adjusted to 8.50-9.0, using ethanolamine.
(§2) Approximately 1 mL of the dye solution was added to selected wells of a 24-well plate (Thomson Instrument Co., Oceanside, Calif.; part # 931565). A multi-block peptide (see Table 12) was dissolved in a solution consisting of 3 wt % benzyl alcohol and 95 wt % water to yield a peptide concentration of 2 wt % or approximately 20 mg/mL. The pH was adjusted to 8.5-9.0 using ethanolamine. The peptide solution was then pipetted into test wells containing dye solution in the amount of 1 mL or 0.2 mL respectively. The total volume in each test well was then adjusted to 2 mL where necessary using 3% aqueous benzyl alcohol (pH adjusted to 8.5-9.0 with ethanolamine). Peptide free controls consisted of 1 mL of dye solution diluted to 2 mL with the pH adjusted aqueous benzyl alcohol solution.
(§3) Baseline […] readings were made on one inch long tresses (see below) using an X-RITE® SP78™ Sphere Spectrophotometer (X-Rite, Inc., Grandville, Mich.), by placing the hair tress into the photosensor and calculating L*, a* and b* parameters representing the photometer response. All measurements were the average of three individual determinations.
(§4) The tresses (potted on one end with resin) of natural white, 85% gray or regular bleached hair (International Hair Importers and Products, Bellerose, N.Y.) were immersed in the peptide/dye solution and the entire well plate was agitated on a VORTEX-GENIE® 2 Mixer (Scientific Industries, Bohemia, N.Y.) at a speed setting of 1 for 30 minutes. The tresses were removed from the wells, rinsed for 30 seconds under flowing deionized water and then air dried.
(§5) The following complement of beads was then added to each well containing a hair tress: (8 beads in all; 4 Novagen Coli Rollers Plating Beads—sterilized (EMD Biosciences, San Diego, Calif.; Catalog No. 71013), 2 BioSpec 6.35 mm glass beads (BioSpec Products, Bartlesville, Okla.; Catalog No. 11079635), and 2 BioSpec 3.2 mm Stainless Steel Bead (Catalog No. 11079132ss).
(§6) Then 2.5 mL of aqueous 50% Pantene Pro V® shampoo (Proctor & Gamble Co., Cincinnati, Ohio) was pipetted into each well. The plate was placed on a VWR® VX-2500 Multi-tube Vortexer (VWR, West Chester, Pa.) for 5 minutes to simulate shampooing with embrocation. The hair tresses were then rinsed under flowing deionized water and air dried. This cycle was repeated two more times except that the length of time was 10 minutes for both subsequent embrocation cycles. (This treatment was previously determined to simulate approximately 12 manual shampoo cycles.) At the conclusion of the third embrocation cycle L*, a* and b* values were measured and Delta E values (ΔE) were calculated using equation 1 below:
(§7) where L*=the lightness variable and a* and b* are the chromaticity coordinates of CIELAB colorspace as defined by the International Commission of Illumination (CIE) (Minolta, Precise Color Communication—Color Control From Feeling to Instrumentation, Minolta Camera Co., 1996).
(§8) The Delta E value (ΔE) indicates color retention relative to the non-dyed hair and larger Delta E values indicate better performance. Values listed in the table represent the difference in Delta E values between the peptide-containing sample and the peptide free control. This difference is indicative of color retention after shampoo or water rinse treatments and positive values indicate better performance relative to the peptide free controls (Table 12).

Test in assay [3]: as above
Also on record: species or system human. The settings on record: difference in Delta E between peptide sample and peptide free control after 3 embrocation cycles (about 12 manual shampoos); pH 8.5-9.0; >2 benefit, >4 substantial benefit. How it is done:
as §1, §2, §3, §4, §5, §6, §7, §8

For the substance “KF11-GGG-GHGHQKQHGLGHGHKHGHGHGHGHGK (PNTSQLSTGGGGHGHQKQHGLGHGHKHGHGHGHGHGK; Peptide having affinity for hair) [HC 81]”, the “Delta E” value in assay [1] is given as 31.57. Also, in assay [2], the “ΔE Retention Ebony Dye Regular Bleached Hair” value is given as −0.1 and the “ΔE Retention Ebony dye with Natural White Hair” value amounted to 0.6. The “ΔE Retention Ebony Dye with 85% Gray Hair” value in assay [3] came out at 7.58.
